Measurements taken from US20230085307A1, “PYRIDAZINONE COMPOUND AND HERBICIDE” (NISSAN CHEMICAL CORPORATION, priority 2019, published 2023).

Tests used:
Italian ryegrass [1] = assay: Test Example 4: herbicidal effect by soil treatment (Table 19, symbol K); assay type: in vivo, Italian ryegrass (Lolium multiflorum); conditions: AAH 320 g/ha
Summary of the method: (§1)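 Scoring uses the grading scale of an earlier test, three weeks post-application. Treatment consists of spraying a diluted emulsion formulation across the surface of sterilized diluvial soil in which seeds are buried near 1.5 cm deep; boxes are kept in a greenhouse between 25° C. and 30° C.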

lambsquarters [2] = assay: Test Example 4: herbicidal effect by soil treatment (Table 19, symbol O); assay type: in vivo, lambsquarters (Chenopodium album); conditions: AAH 320 g/ha
Summary of the method: as §1

redroot pigweed = assay: Test Example 4: herbicidal effect by soil treatment (Table 19, symbol N); assay type: in vivo, redroot pigweed (Amaranthus retroflexus); conditions: AAH 320 g/ha
Summary of the method: as §1

green foxtail [3] = assay: Test Example 4: herbicidal effect by soil treatment (Table 19, symbol G); assay type: in vivo, green foxtail (Setaria viridis); conditions: AAH 320 g/ha
Summary of the method: as §1

late watergrass = assay: Test Example 1: herbicidal activity, application before weed generation under submerged conditions (Table 16, symbol A); assay type: in vivo, late watergrass (Echinochloa oryzicola); conditions: 320 g/ha applied herbicide
Summary of the method: (§2)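 Alluvial soil was flooded to 4 cm depth, weed seeds were sown mixed and 2.5-leaf rice seedlings were transplanted. On sowing day, the compound's emulsion, diluted in water to a set dose, was applied to the water surface. Plants grew at 25–30 °C and were scored 0–5 after three weeks.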

blackgrass [4] = assay: Test Example 5: herbicidal effect by foliage application, plastic box (Table 20, symbol J); assay type: in vivo, blackgrass (Alopecurus myosuroides); conditions: foliage application, 320 g/ha, 3 weeks after application
Summary of the method: (§3)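 Post-emergence foliar test in sterilized diluvial soil. Compound applied as water-diluted emulsion at a predetermined rate to 14-day-old plants; evaluation at three weeks.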

velvetleaf [5] = assay: Test Example 4: herbicidal effect by soil treatment (Table 19, symbol M); assay type: in vivo, velvetleaf (Abutilon theophrasti); conditions: AAH 320 g/ha
Summary of the method: as §1

Italian ryegrass [6] = assay: Test Example 5: herbicidal effect by foliage application, plastic box (Table 20, symbol K); assay type: in vivo, Italian ryegrass (Lolium multiflorum); conditions: foliage application, 320 g/ha, 3 weeks after application
Summary of the method: as §3

Chinese sprangletop = assay: Test Example 3: herbicidal effect by foliage application, Wagner pot (Table 18, symbol D); assay type: in vivo, chinese sprangletop (Leptochloa chinensis); conditions: 320 g/ha
Summary of the method: (§4)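 Plants were sown in alluvial soil held under 0.1–0.5 cm standing water and grown 14 days in a greenhouse at 25–30 °C. An emulsifiable formulation, water-diluted to the set dose, was then sprayed onto the foliage, and effects were scored three weeks later using previously defined criteria.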

barnyard grass [7] = assay: Test Example 4: herbicidal effect by soil treatment (Table 19, symbol H); assay type: in vivo, barnyard grass (Echinochloa crus-galli); conditions: AAH 320 g/ha
Summary of the method: as §1

persian speedwell [8] = assay: Test Example 4: herbicidal effect by soil treatment (Table 19, symbol R); assay type: in vivo, Persian speedwell (Veronica persica); conditions: AAH 320 g/ha
Summary of the method: as §1

Japanese bulrush = assay: Test Example 1: herbicidal activity, application before weed generation under submerged conditions (Table 16, symbol B); assay type: in vivo, Japanese bulrush (Schoenoplectus juncoides); conditions: 320 g/ha applied herbicide
Summary of the method: as §2

windgrass [9] = assay: Test Example 4: herbicidal effect by soil treatment (Table 19, symbol L); assay type: in vivo, windgrass (Apera spica-venti); conditions: AAH 320 g/ha
Summary of the method: as §1

wild oat [10] = assay: Test Example 4: herbicidal effect by soil treatment (Table 19, symbol I); assay type: in vivo, wild oat (Avena fatua); conditions: AAH 320 g/ha
Summary of the method: as §1

barnyard grass [11] = assay: Test Example 5: herbicidal effect by foliage application, plastic box (Table 20, symbol H); assay type: in vivo, barnyard grass (Echinochloa crus-galli); conditions: foliage application, 320 g/ha, 3 weeks after application
Summary of the method: as §3

velvetleaf [12] = assay: Test Example 5: herbicidal effect by foliage application, plastic box (Table 20, symbol M); assay type: in vivo, velvetleaf (Abutilon theophrasti); conditions: foliage application, 320 g/ha, 3 weeks after application
Summary of the method: as §3

wild oat [13] = assay: Test Example 5: herbicidal effect by foliage application, plastic box (Table 20, symbol I); assay type: in vivo, wild oat (Avena fatua); conditions: foliage application, 320 g/ha, 3 weeks after application
Summary of the method: as §3

barnyard grass [14] = assay: Test Example 3: herbicidal effect by foliage application, Wagner pot (Table 18, symbol H); assay type: in vivo, barnyard grass (Echinochloa crus-galli); conditions: 320 g/ha
Summary of the method: as §4

green foxtail [15] = assay: Test Example 5: herbicidal effect by foliage application, plastic box (Table 20, symbol G); assay type: in vivo, green foxtail (Setaria viridis); conditions: foliage application, 320 g/ha, 3 weeks after application
Summary of the method: as §3

windgrass [16] = assay: Test Example 5: herbicidal effect by foliage application, plastic box (Table 20, symbol L); assay type: in vivo, windgrass (Apera spica-venti); conditions: foliage application, 320 g/ha, 3 weeks after application
Summary of the method: as §3

oval-leafed pondweed = assay: Test Example 1: herbicidal activity, application before weed generation under submerged conditions (Table 16, symbol C); assay type: in vivo, oval-leafed pondweed (Monochoria vaginalis); conditions: 320 g/ha applied herbicide
Summary of the method: as §2

southern crabgrass [17] = assay: Test Example 5: herbicidal effect by foliage application, plastic box (Table 20, symbol F); assay type: in vivo, southern crabgrass (Digitaria ciliaris); conditions: foliage application, 320 g/ha, 3 weeks after application
Summary of the method: as §3

persian speedwell [18] = assay: Test Example 5: herbicidal effect by foliage application, plastic box (Table 20, symbol R); assay type: in vivo, Persian speedwell (Veronica persica); conditions: foliage application, 320 g/ha, 3 weeks after application
Summary of the method: as §3

southern crabgrass [19] = assay: Test Example 4: herbicidal effect by soil treatment (Table 19, symbol F); assay type: in vivo, southern crabgrass (Digitaria ciliaris); conditions: AAH 320 g/ha
Summary of the method: as §1

rice flat sedge = assay: Test Example 3: herbicidal effect by foliage application, Wagner pot (Table 18, symbol E); assay type: in vivo, rice flat sedge (Cyperus iria); conditions: 320 g/ha
Summary of the method: as §4

lambsquarters [20] = assay: Test Example 5: herbicidal effect by foliage application, plastic box (Table 20, symbol O); assay type: in vivo, lambsquarters (Chenopodium album); conditions: foliage application, 320 g/ha, 3 weeks after application
Summary of the method: as §3

blackgrass [21] = assay: Test Example 4: herbicidal effect by soil treatment (Table 19, symbol J); assay type: in vivo, blackgrass (Alopecurus myosuroides); conditions: AAH 320 g/ha
Summary of the method: as §1

## C=CCSCc1ccc(-c2sc3ccccc3c2-c2c(O)c(C)nn(C)c2=O)cc1 [1-245]
Italian ryegrass [1]
  K: Italian ryegrass, herbicidal effect rating: 2 (Herbicidal rate of 20% or more and less than 40%)
Lambsquarters [2]
  O: lambsquarters, herbicidal effect rating: 3 (Herbicidal rate of 40% or more and less than 70%)
Redroot pigweed
  N: redroot pigweed, herbicidal effect rating: 3 (Herbicidal rate of 40% or more and less than 70%)
Green foxtail [3]
  G: green foxtail, herbicidal effect rating: 0 (Herbicidal rate of 5% or less (almost no effect))
Late watergrass
  Herbicidal effect on A: late watergrass (grade 0-5): 3 (Herbicidal rate of 40% or more and less than 70%)
Blackgrass [4]
  effect on blackgrass (J): 3 (Herbicidal rate of 40% or more and less than 70%)
Velvetleaf [5]
  M: velvetleaf, herbicidal effect rating: 0 (Herbicidal rate of 5% or less (almost no effect))
Italian ryegrass [6]
  effect on Italian ryegrass (K): 4 (Herbicidal rate of 70% or more and less than 90%)
Chinese sprangletop
  herbicidal effect on D (Chinese sprangletop), rating 0-5: 3 (Herbicidal rate of 40% or more and less than 70%)
Barnyard grass [7]
  H: barnyard grass, herbicidal effect rating: 0 (Herbicidal rate of 5% or less (almost no effect))
Persian speedwell [8]
  R: persian speedwell, herbicidal effect rating: 4 (Herbicidal rate of 70% or more and less than 90%)
Japanese bulrush
  Herbicidal effect on B: Japanese bulrush (grade 0-5): 3 (Herbicidal rate of 40% or more and less than 70%)
Windgrass [9]
  L: windgrass, herbicidal effect rating: 0 (Herbicidal rate of 5% or less (almost no effect))
Wild oat [10]
  I: wild oat, herbicidal effect rating: 0 (Herbicidal rate of 5% or less (almost no effect))
Barnyard grass [11]
  effect on barnyard grass (H): 5 (Herbicidal rate of 90% or more (almost completely withered))
Velvetleaf [12]
  effect on velvetleaf (M): 5 (Herbicidal rate of 90% or more (almost completely withered))
Wild oat [13]
  effect on wild oat (I): 1 (Herbicidal rate of 5% or more and less than 20%)
Barnyard grass [14]
  herbicidal effect on H (barnyard grass), rating 0-5: 5 (Herbicidal rate of 90% or more (almost completely withered))
Green foxtail [15]
  effect on green foxtail (G): 4 (Herbicidal rate of 70% or more and less than 90%)
Windgrass [16]
  effect on windgrass (L): 4 (Herbicidal rate of 70% or more and less than 90%)
oval-leafed pondweed
  Herbicidal effect on C: oval-leafed pondweed (grade 0-5): 0 (Herbicidal rate of 5% or less (almost no effect))
Southern crabgrass [17]
  effect on southern crabgrass (F): 3 (Herbicidal rate of 40% or more and less than 70%)
Persian speedwell [18]
  effect on persian speedwell (R): 5 (Herbicidal rate of 90% or more (almost completely withered))
Southern crabgrass [19]
  F: southern crabgrass, herbicidal effect rating: 0 (Herbicidal rate of 5% or less (almost no effect))
Rice flat sedge
  herbicidal effect on E (rice flat sedge), rating 0-5: 3 (Herbicidal rate of 40% or more and less than 70%)
Lambsquarters [20]
  effect on lambsquarters (O): 5 (Herbicidal rate of 90% or more (almost completely withered))
Blackgrass [21]
  J: blackgrass, herbicidal effect rating: 0 (Herbicidal rate of 5% or less (almost no effect))
